For seven compounds, IC50, AC50 and EC50 results are on record in ChEMBL document CHEMBL1201862, “PubChem BioAssay data set” (2004).

In assay [1] the target is Disintegrin and metalloproteinase domain-containing protein 17 (Homo sapiens, UniProt P78536). As to the kind of experiment: exosite inhibitors of ADAM17, dose response, biochemical (AID 743260).
Assay [2] can be described thus: ARNT/TACC3 interaction disruptors, potency, confirmation, biochemical, AlphaScreen, cherry-picked samples (AID 651703).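 Further: His-tagged ARNT PAS-B domain paired with GST-TACC3 E629A dimer coactivator fragment; potency of inhibitors that break up the complex and lower AlphaScreen signal.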 The class given is functional, Homo sapiens.
Another assay concerns the target Caspase-6 (Homo sapiens, UniProt P55212). As to the kind of experiment: human caspase-6 inhibitors, dose response, biochemical, VEID-R110 fluorescence, cherry-pick (AID 720632).
The nature of assay [3]: ADAM10 protease inhibitors, dose response, selectivity assay for ADAM17 exosite inhibitor project, biochemical, FRET peptide substrate, recombinant human ADAM10 (AID 743259).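 Further: ADAM10 enzyme cleaving a FRET peptide substrate.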
Assay [4] can be described thus: cytotoxicity in OVCAR8 ovarian cancer cells, dose response, PAX8 project, cell-based, plate reader, dry powder samples (AID 743197). The class given is functional. As to conditions: OVCAR-8.
The target of another assay is Paired box protein Pax-8 (Homo sapiens, UniProt Q06710). Briefly: inhibitors of PAX8-driven TPO luciferase reporter, dose response, RMG-I cells, cherry-pick (AID 687027).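 Further: luciferase reporter driven by Pax8 target thyroperoxidase promoter measured by SteadyGlo luminescence.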 The class given is functional, cell-based.
Sequence of Paired box protein Pax-8 (Q06710 whole entry): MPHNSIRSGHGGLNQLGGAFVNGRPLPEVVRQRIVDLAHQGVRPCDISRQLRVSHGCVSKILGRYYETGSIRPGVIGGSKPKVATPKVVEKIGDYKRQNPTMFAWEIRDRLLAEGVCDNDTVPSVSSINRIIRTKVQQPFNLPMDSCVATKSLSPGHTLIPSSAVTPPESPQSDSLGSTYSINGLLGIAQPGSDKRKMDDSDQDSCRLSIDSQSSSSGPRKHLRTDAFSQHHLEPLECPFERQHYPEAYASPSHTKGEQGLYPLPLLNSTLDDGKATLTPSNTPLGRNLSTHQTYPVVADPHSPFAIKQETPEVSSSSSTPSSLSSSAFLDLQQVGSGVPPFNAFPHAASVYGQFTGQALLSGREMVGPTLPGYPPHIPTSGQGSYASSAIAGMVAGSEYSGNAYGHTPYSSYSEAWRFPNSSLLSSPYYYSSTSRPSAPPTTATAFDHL
Assay [5] is described as follows: IGROV1 ovarian cancer cell cytotoxicity, dose response, PAX8 inhibitor project, plate reader, dry powder samples (AID 743043). The conditions noted are these: IGROV-1. The class given is functional, cell-based.
The nature of assay [6]: A2780 ovarian cancer cell cytotoxicity, dose response, cytotoxicity control, plate reader, dry powder samples (AID 743046). The class given is functional, cell-based.
Assay [7] is described as follows: NIH:OVCAR-3 ovarian cancer cell cytotoxicity, dose response, PAX8 inhibitor project, plate reader, dry powder samples (AID 743044). Type of assay: functional, cell-based.
Assay [8] in a line: non-specific cell cytotoxicity, dose response, cytotoxicity control for PAX8 inhibitor project, plate reader, dry powder samples (AID 743021). Type of assay: functional, cell-based.
Assay [9] in a line: Luminescence-based cell-based high throughput dose response assay to identify activators of the DAF-12 from the parasite S. stercoralis (ssDAF-12). The class given is functional.
Assay [10] has as its target T1, Oxysterols receptor LXR-beta (Homo sapiens, UniProt P55055).
T1 sequence (P55055 whole entry): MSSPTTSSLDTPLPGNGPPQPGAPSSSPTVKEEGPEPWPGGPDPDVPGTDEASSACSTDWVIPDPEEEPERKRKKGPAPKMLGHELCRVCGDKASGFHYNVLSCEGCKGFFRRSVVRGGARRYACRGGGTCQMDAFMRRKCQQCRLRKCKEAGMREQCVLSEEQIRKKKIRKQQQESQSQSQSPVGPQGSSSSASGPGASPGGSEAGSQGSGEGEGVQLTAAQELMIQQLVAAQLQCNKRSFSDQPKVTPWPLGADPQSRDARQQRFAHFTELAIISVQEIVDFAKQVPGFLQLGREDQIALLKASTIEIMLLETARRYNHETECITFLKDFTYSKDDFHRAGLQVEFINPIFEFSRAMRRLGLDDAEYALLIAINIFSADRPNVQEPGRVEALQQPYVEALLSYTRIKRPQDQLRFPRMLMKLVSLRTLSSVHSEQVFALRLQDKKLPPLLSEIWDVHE
Briefly: LXR agonists, Gal4 luciferase reporter, dose response, counter-screen for ssDAF-12 agonist project, cell-based, luminescence, HEK293, S. stercoralis campaign (AID 720737). Type of assay: functional. As to conditions: read-out: IC50 (the source's name). (In general: In a reporter assay the amount or activity of a reporter protein is the signal.)

Assay [11] deals with T1, Oxysterols receptor LXR-beta. Type of assay: functional, cell-based.
The target of another assay is Ion channel NompC (Danio rerio, UniProt Q7T1G6). As to the kind of experiment: Fluorescence counterscreen assay for TRPML3 agonists: dose response cell-based high-throughput screening assay to identify agonists of the transient receptor potential channel N1 (TRPN1). [Related pubchem assays: 1526, 1424, 1448 ]. The class given is functional. For orientation: A counterscreen serves to expose hits that act by an unwanted route or on another target.
Sequence of Ion channel NompC (Q7T1G6 whole entry): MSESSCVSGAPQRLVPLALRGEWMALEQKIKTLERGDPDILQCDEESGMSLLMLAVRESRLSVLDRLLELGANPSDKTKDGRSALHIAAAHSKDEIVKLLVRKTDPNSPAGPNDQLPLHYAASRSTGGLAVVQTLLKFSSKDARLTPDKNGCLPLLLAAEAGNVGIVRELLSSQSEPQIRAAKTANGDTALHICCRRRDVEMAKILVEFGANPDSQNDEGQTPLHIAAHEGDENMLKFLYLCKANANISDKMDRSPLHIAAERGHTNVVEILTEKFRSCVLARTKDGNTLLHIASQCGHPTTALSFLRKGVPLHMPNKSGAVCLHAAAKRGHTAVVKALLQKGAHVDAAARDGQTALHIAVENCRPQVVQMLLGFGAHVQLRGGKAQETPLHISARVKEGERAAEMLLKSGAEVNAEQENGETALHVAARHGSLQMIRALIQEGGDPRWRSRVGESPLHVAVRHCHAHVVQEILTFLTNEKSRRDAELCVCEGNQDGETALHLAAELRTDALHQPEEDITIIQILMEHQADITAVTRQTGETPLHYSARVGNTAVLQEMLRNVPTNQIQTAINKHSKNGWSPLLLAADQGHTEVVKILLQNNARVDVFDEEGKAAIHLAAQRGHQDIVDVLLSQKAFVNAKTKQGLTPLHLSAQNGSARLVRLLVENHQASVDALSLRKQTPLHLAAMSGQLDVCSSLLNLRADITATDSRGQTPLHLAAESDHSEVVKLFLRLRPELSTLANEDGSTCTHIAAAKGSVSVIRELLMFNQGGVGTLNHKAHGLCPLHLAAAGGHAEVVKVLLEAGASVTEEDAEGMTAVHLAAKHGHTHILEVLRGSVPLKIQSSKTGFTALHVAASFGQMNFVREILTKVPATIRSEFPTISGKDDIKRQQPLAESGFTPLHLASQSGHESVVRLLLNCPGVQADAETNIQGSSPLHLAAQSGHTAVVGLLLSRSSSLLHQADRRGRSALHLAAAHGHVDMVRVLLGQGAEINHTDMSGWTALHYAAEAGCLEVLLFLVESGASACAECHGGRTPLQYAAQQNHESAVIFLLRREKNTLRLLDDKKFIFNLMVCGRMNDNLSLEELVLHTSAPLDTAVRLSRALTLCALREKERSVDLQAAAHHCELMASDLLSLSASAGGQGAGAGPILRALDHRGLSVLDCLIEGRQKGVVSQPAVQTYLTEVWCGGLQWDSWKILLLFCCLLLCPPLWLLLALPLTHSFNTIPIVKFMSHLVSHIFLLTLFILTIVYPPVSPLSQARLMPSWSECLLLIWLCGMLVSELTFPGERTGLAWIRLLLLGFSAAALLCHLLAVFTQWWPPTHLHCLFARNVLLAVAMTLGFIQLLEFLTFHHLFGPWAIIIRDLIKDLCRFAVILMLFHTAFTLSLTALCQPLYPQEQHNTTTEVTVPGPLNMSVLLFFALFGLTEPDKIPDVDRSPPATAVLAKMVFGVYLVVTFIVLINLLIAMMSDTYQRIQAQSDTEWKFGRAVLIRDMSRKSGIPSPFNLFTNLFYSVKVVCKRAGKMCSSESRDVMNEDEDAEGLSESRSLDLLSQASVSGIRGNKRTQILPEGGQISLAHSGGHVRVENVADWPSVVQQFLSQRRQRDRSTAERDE

Another assay has as its target T2, Mucolipin-3 (Homo sapiens, UniProt Q8TDD5).
T2 sequence (Q8TDD5 whole entry): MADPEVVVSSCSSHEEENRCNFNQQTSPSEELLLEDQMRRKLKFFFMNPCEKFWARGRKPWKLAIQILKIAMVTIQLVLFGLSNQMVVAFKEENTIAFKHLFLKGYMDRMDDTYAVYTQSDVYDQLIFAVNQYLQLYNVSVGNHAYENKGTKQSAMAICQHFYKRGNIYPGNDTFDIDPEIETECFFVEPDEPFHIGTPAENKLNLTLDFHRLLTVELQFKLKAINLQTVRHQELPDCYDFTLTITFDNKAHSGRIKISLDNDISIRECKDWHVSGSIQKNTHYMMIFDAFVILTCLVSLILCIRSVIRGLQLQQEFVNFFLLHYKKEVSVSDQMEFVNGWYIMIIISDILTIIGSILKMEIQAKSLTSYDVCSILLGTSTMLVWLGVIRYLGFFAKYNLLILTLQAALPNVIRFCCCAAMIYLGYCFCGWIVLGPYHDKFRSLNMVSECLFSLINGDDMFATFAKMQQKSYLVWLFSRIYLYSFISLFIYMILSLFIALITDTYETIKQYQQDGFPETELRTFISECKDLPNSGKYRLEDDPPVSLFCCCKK
As to the kind of experiment: Dose response cell-based high-throughput screening assay for agonists of the transient receptor potential channel ML3 (TRPML3). [Related pubchem assays: 1526, 1424, 1448 ]. Type of assay: functional.

The nature of assay [12]: reduction of Shn3 3'UTR firefly luciferase signal, dose response, Schnurri-3 inhibitor project, cell-based, Clone20 osteoblasts, cherry-pick, set 2 (AID 720490).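 Further: actives lower the luminescence signal as inhibitors.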 The class given is functional.
Assay [13] is described as follows: Shn3 3'UTR reporter inhibitors, dose response, cell-based, Clone20 osteoblasts, firefly luciferase, cherry-picked (AID 624132).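 Further: firefly luciferase luminescence from reporter carrying the Shn3 3'UTR in osteoblasts.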 The class given is functional.
Assay [14] can be described thus: HepG2 cell cytotoxicity, dose response, cytotoxicity control for Shn3 inhibitor project, CellTiter-Glo, cherry-picked (AID 624134). Type of assay: functional, cell-based. In general terms: Cellular ATP, detected with luciferase, serves as a proxy for viable cell number.
A short description of assay [15]: cells. The class given is functional, cell-based.
A short description of assay [16]: cells. Type of assay: functional, cell-based. This is another data set of the same source.

The source made the active and inactive calls.

Sequence of Disintegrin and metalloproteinase domain-containing protein 17 (P78536 whole entry, the tested form may be a part): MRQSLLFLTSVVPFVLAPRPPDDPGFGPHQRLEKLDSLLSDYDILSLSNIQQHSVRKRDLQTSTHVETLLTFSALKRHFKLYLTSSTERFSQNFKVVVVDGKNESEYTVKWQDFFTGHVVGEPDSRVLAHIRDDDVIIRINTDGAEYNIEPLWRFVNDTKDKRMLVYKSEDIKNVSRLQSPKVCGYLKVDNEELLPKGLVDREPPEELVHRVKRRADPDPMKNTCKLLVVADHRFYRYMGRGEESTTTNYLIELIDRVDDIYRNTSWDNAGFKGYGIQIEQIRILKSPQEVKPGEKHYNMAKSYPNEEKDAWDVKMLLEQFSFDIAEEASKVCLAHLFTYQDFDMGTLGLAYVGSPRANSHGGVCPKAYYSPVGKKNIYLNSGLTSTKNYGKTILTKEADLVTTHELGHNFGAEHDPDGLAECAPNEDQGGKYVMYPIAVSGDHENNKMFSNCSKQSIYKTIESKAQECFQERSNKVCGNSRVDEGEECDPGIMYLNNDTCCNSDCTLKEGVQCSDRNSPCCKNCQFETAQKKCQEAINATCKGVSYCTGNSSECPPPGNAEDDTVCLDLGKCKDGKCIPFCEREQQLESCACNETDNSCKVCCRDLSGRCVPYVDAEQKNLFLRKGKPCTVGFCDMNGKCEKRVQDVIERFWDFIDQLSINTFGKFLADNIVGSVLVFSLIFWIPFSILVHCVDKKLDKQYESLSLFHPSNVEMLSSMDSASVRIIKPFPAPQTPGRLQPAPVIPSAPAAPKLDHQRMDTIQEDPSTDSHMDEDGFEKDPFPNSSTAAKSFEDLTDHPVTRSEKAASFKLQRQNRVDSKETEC
Sequence of Caspase-6 (P55212 24-179 limits assumed): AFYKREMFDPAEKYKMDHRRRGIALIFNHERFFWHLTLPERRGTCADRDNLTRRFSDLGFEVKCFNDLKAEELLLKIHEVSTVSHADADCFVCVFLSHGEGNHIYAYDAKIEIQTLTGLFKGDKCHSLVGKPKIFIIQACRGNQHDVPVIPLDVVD
Sequence of Caspase-6 (P55212 194-293 limits assumed): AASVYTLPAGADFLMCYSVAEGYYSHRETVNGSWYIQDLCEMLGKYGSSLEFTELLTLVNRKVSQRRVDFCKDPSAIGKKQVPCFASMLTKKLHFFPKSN

By IC50 is commonly meant the concentration that gives 50% inhibition. Take `COc1ccc(-c2n[nH]c(=S)n2-c2ccc(Br)cc2)cc1OC`: the IC50 in assay [1] was 41.6 µM (inactive).

As usually defined, the AC50 is the concentration giving half of the maximal activity seen. `CCOC(=O)C1CCN(C(=O)COC(=O)c2ccc([N+](=O)[O-])o2)CC1`: the AC50 is 88.2 µM (active) in assay [2] and 18.5 µM (active) at Caspase-6.

On to `Cc1ccccc1-c1nnn(Cc2ccc(F)cc2Cl)n1`, for which the IC50 in assay [3] and in [1] was > 69.5 µM (inactive) in each case.

For the compound `O=C(C1CCC1)N1CC(=O)N2[C@H](CO)[C@H](c3ccc(C#CCc4ccccc4)cc3)[C@H]2C1`, the AC50 in assay [4] was 20.4 µM (active); on Paired box protein Pax-8 it was 24.3 µM (active); in assay [5], 42.6 µM (active); in assay [6] it was 324 nM (active); in assay [7] it was 11.4 µM (active); in [8], 48 µM (active).

For the compound `Oc1ccccc1-c1cc(-c2ccc(Cl)cc2)[nH]n1`, the IC50 in [9] is > 67.5 µM (inactive). Also, the EC50 in assay [10] and in assay [11] was > 67.5 µM (inactive) throughout.

As for `COc1ccc(NS(=O)(=O)c2ccc(OC)c(N(C)S(=O)(=O)c3ccc(Cl)cc3)c2)cc1`, the EC50 on Ion channel NompC is > 29.9 µM (not active); on Mucolipin-3, > 9.99 µM (not active). For the same compound, the results for the concentration at half-maximal activity (AC50) in assay [12], in [13] and in [14] were 3.54 µM (active), 2.92 µM (active) and 38.7 µM (active), respectively.

With `OCc1ccc(N=Nc2ccccc2)cc1`, the values for the EC50 (in “cells [15]”; in assay [11]; in “cells [16]”) were > 350 µM (not active), > 67.5 µM (inactive) and 8.65 µM (active), respectively.
